{"source": "the NIST ThermoML archive (doi:10.1021/acs.jced.6b00026)", "settings": "Liquid, Buoyancy - hydrostatic balance with magnetic suspension - one sinker", "note": "± gives the expanded uncertainty stated by the source."}
{"compound": "CCCCCCCCCCC", "note": "[undecane]", "values": [{"measurement": "mass density", "setting": "313.17 K, 19009 kPa", "result": "741.21 ± 0.33", "unit": "kg/m3"}, {"measurement": "mass density", "setting": "313.18 K, 9997 kPa", "result": "734.69 ± 0.33", "unit": "kg/m3"}, {"measurement": "mass density", "setting": "313.19 K, 12016 kPa", "result": "736.18 ± 0.33", "unit": "kg/m3"}, {"measurement": "mass density", "setting": "313.19 K, 18013 kPa", "result": "740.5 ± 0.33", "unit": "kg/m3"}, {"measurement": "mass density", "setting": "313.22 K, 14009 kPa", "result": "737.62 ± 0.33", "unit": "kg/m3"}, {"measurement": "mass density", "setting": "313.23 K, 16006 kPa", "result": "739.05 ± 0.33", "unit": "kg/m3"}, {"measurement": "mass density", "setting": "313.24 K, 8029 kPa", "result": "733.14 ± 0.33", "unit": "kg/m3"}, {"measurement": "mass density", "setting": "323.18 K, 19002 kPa", "result": "734.54 ± 0.33", "unit": "kg/m3"}, {"measurement": "mass density", "setting": "323.19 K, 16026 kPa", "result": "732.35 ± 0.33", "unit": "kg/m3"}, {"measurement": "mass density", "setting": "323.19 K, 17995 kPa", "result": "733.8 ± 0.33", "unit": "kg/m3"}, {"measurement": "mass density", "setting": "323.22 K, 10009 kPa", "result": "727.67 ± 0.33", "unit": "kg/m3"}, {"measurement": "mass density", "setting": "323.23 K, 12003 kPa", "result": "729.24 ± 0.33", "unit": "kg/m3"}, {"measurement": "mass density", "setting": "323.23 K, 14022 kPa", "result": "730.8 ± 0.33", "unit": "kg/m3"}, {"measurement": "mass density", "setting": "323.24 K, 7997 kPa", "result": "726.03 ± 0.33", "unit": "kg/m3"}, {"measurement": "mass density", "setting": "333.12 K, 16003 kPa", "result": "725.32 ± 0.33", "unit": "kg/m3"}, {"measurement": "mass density", "setting": "333.12 K, 17990 kPa", "result": "726.87 ± 0.33", "unit": "kg/m3"}, {"measurement": "mass density", "setting": "333.13 K, 12007 kPa", "result": "722.07 ± 0.33", "unit": "kg/m3"}, {"measurement": "mass density", "setting": "333.14 K, 8001 kPa", "result": "718.68 ± 0.33", "unit": "kg/m3"}, {"measurement": "mass density", "setting": "333.14 K, 19027 kPa", "result": "727.66 ± 0.33", "unit": "kg/m3"}, {"measurement": "mass density", "setting": "333.15 K, 14012 kPa", "result": "723.7 ± 0.33", "unit": "kg/m3"}, {"measurement": "mass density", "setting": "333.16 K, 10001 kPa", "result": "720.38 ± 0.33", "unit": "kg/m3"}, {"measurement": "mass density", "setting": "343.25 K, 13005 kPa", "result": "716 ± 0.33", "unit": "kg/m3"}, {"measurement": "mass density", "setting": "343.25 K, 16996 kPa", "result": "719.36 ± 0.33", "unit": "kg/m3"}, {"measurement": "mass density", "setting": "343.26 K, 11021 kPa", "result": "714.27 ± 0.33", "unit": "kg/m3"}, {"measurement": "mass density", "setting": "343.26 K, 14019 kPa", "result": "716.86 ± 0.33", "unit": "kg/m3"}, {"measurement": "mass density", "setting": "343.27 K, 15997 kPa", "result": "718.51 ± 0.33", "unit": "kg/m3"}, {"measurement": "mass density", "setting": "343.27 K, 18006 kPa", "result": "720.27 ± 0.33", "unit": "kg/m3"}, {"measurement": "mass density", "setting": "343.28 K, 11999 kPa", "result": "715.12 ± 0.33", "unit": "kg/m3"}, {"measurement": "mass density", "setting": "343.28 K, 19019 kPa", "result": "720.98 ± 0.33", "unit": "kg/m3"}, {"measurement": "mass density", "setting": "343.29 K, 7989 kPa", "result": "711.51 ± 0.33", "unit": "kg/m3"}, {"measurement": "mass density", "setting": "343.29 K, 9998 kPa", "result": "713.33 ± 0.33", "unit": "kg/m3"}, {"measurement": "mass density", "setting": "343.3 K, 14998 kPa", "result": "717.66 ± 0.33", "unit": "kg/m3"}, {"measurement": "mass density", "setting": "353.16 K, 12003 kPa", "result": "708.19 ± 0.33", "unit": "kg/m3"}, {"measurement": "mass density", "setting": "353.31 K, 11002 kPa", "result": "707.25 ± 0.33", "unit": "kg/m3"}, {"measurement": "mass density", "setting": "353.31 K, 17012 kPa", "result": "712.63 ± 0.33", "unit": "kg/m3"}, {"measurement": "mass density", "setting": "353.32 K, 13007 kPa", "result": "709.08 ± 0.33", "unit": "kg/m3"}, {"measurement": "mass density", "setting": "353.32 K, 14999 kPa", "result": "710.86 ± 0.33", "unit": "kg/m3"}, {"measurement": "mass density", "setting": "353.32 K, 19024 kPa", "result": "714.35 ± 0.33", "unit": "kg/m3"}, {"measurement": "mass density", "setting": "353.33 K, 7993 kPa", "result": "704.36 ± 0.33", "unit": "kg/m3"}, {"measurement": "mass density", "setting": "353.33 K, 14003 kPa", "result": "709.98 ± 0.33", "unit": "kg/m3"}, {"measurement": "mass density", "setting": "353.33 K, 18010 kPa", "result": "713.48 ± 0.33", "unit": "kg/m3"}, {"measurement": "mass density", "setting": "353.34 K, 16001 kPa", "result": "711.73 ± 0.33", "unit": "kg/m3"}, {"measurement": "mass density", "setting": "353.35 K, 9996 kPa", "result": "706.27 ± 0.33", "unit": "kg/m3"}]}
